Experimental data published in patent US20220033363A1, “HERBICIDALLY ACTIVE SUBSTITUTED PHENYLPYRIMIDINE HYDRAZIDES” (Bayer Aktiengesellschaft, priority 2018, published 2022).

Key:
Type in all cases: in vivo
[1] = test system: Stellaria media; experiment: Herbicidal pre-emergence action (Method B) against STEME; settings: 504 h; for pest or weed control at 320 g/ha: dosage 320 g/ha; for pest or weed control at 1280 g/ha: dosage 1280 g/ha
Description: (§1) Method B: Herbicidal Pre-Emergence Action Seeds of mono- and dicotyledonous weed plants are placed in plastic pots in sandy loam soil (doubly sown with one species each of mono- or dicotyledonous weed plants per pot) and covered with soil. The compounds of the invention, formulated in the form of wettable powders (WP) or as emulsion concentrates (EC), are then applied onto the surface of the covering soil as aqueous suspension or emulsion with addition of 0.5% additive at a water application rate equivalent to 600 liters per hectare. After the treatment, the pots are placed in a greenhouse and kept under good growth conditions for the trial plants. After about 3 weeks, the effect of the preparations is scored visually in comparison with untreated controls as percentages. For example, 100% action=the plants have died, 0% action=like control plants.

[2] = test system: Lolium rigidum; experiment: Herbicidal pre-emergence action (Method B) against LOLRI; settings: 504 h, scored visually after about 3 weeks vs untreated controls
Description: as §1

[3] = test system: Matricaria inodora; experiment: Herbicidal pre-emergence action (Method B) against MATIN; settings: Tripleurospermum inodorum, 504 h, scored visually after about 3 weeks vs untreated controls
Description: as §1

[4] = test system: Poa annua; experiment: Herbicidal pre-emergence action (Method B) against POAAN; settings: 504 h, scored visually after about 3 weeks vs untreated controls
Description: as §1

[5] = test system: Setaria viridis; experiment: Herbicidal pre-emergence action (Method B) against SETVI; settings: 1280 g/ha, scored visually after about 3 weeks vs untreated controls
Description: as §1

[6] = test system: harmful plants; experiment: Herbicidal pre-emergence action (Method B), summary statement; settings: summary of tables B1-B12 (Method B)
Description: as §1

[7] = test system: Stellaria media; experiment: Herbicidal post-emergence action (Method A) against STEME; settings: 504 h, rated visually after about 3 weeks vs untreated controls
Protocol: (§2) Method A: Herbicidal Post-Emergence Action Seeds of mono- and dicotyledonous weed plants are placed in plastic pots in sandy loam soil (twin sowing with one species each of mono- or dicotyledonous weed plants per pot), covered with soil and cultivated in a greenhouse under controlled growth conditions. 2 to 3 weeks after sowing, the test plants are treated at the one-leaf stage. The compounds of the invention, formulated in the form of wettable powders (WP) or as emulsion concentrates (EC), are applied to the green parts of the plants as aqueous suspension or emulsion with addition of 0.5% additive at a water application rate equivalent to 600 liters per hectare. After the test plants have been kept in the greenhouse under optimum growth conditions for about 3 weeks, the activity of the preparations is rated visually in comparison to untreated controls. For example, 100% activity=the plants have died, 0% activity=like control plants.

[8] = test system: Lolium rigidum; experiment: Herbicidal post-emergence action (Method A) against LOLRI; settings: rated visually after about 3 weeks vs untreated controls; for pest or weed control at 1280 g/ha: Lolium rigidum, post-emergence, 504 h
Protocol: as §2

[9] = test system: Echinochloa crus-galli; experiment: Herbicidal pre-emergence action (Method B) against ECHCG; settings: 504 h, scored visually after about 3 weeks vs untreated controls
Description: as §1

[10] = test system: Poa annua; experiment: Herbicidal post-emergence action (Method A) against POAAN; settings: 504 h, rated visually after about 3 weeks vs untreated controls; for pest or weed control at 320 g/ha: read-out: Post-emergence action at 320 g/ha against POANN; for pest or weed control at 1280 g/ha: read-out: Post-emergence action at 1280 g/ha against POANN
Protocol: as §2

[11] = test system: Echinochloa crus-galli; experiment: Herbicidal post-emergence action (Method A) against ECHCG; settings: rated visually after about 3 weeks vs untreated controls; for pest or weed control at 1280 g/ha: Echinochloa crus-galli, post-emergence, 504 h
Protocol: as §2

[12] = test system: harmful plants; experiment: Herbicidal post-emergence action (Method A), summary statement; settings: summary of tables A1-A11
Protocol: as §2

[13] = test system: Abutilon theophrast; experiment: Herbicidal post-emergence action (Method A) against ABUTH; settings: rated visually after about 3 weeks vs untreated controls
Protocol: as §2

[14] = test system: Matricaria inodora; experiment: Herbicidal post-emergence action (Method A) against MATIN; settings: 1280 g/ha; rated visually after about 3 weeks vs untreated controls
Protocol: as §2

[15] = test system: Abutilon theophrast; experiment: Herbicidal pre-emergence action (Method B) against ABUTH; settings: 1280 g/ha, scored visually after about 3 weeks vs untreated controls
Description: as §1

[16] = test system: Amaranthus retroflexus; experiment: Herbicidal post-emergence action (Method A) against AMARE; settings: rated visually after about 3 weeks vs untreated controls
Protocol: as §2

Row | SMILES | pest or weed control at 320 g/ha [1] [%] | pest or weed control at 1280 g/ha [1] [%] | pest or weed control at 320 g/ha [2] [%] | pest or weed control at 1280 g/ha [2] [%] | pest or weed control at 1280 g/ha [3] [%] | pest or weed control at 320 g/ha [4] [%] | pest or weed control at 1280 g/ha [4] [%] | pest or weed control at 320 g/ha [7] [%] | pest or weed control at 1280 g/ha [7] [%] | pest or weed control at 1280 g/ha [8] [%] | pest or weed control at 320 g/ha [9] [%] | pest or weed control at 1280 g/ha [9] [%] | pest or weed control at 320 g/ha [10] [%] | pest or weed control at 1280 g/ha [10] [%] | pest or weed control at 1280 g/ha [11] [%] | Post-emergence action at 1280 g/ha against MATIN [14] [%] | other results
1 | NNC(=O)c1nc(C2CC2)ncc1-c1ccccc1Cl [Example I-497, 5-(2-chlorophenyl)-2-cyclopropylpyrimidine-4-carbohydrazide] | 100 | 100 | 90 | 100 | 100 | 100 | 100 | 100 | 100 | 100 | 100 | 100 | 100 | 100 | 100 |  | pest or weed control at 320 g/ha ([3]; 320 g/ha): 100%; Pre-emergence action against SETVI [5]: 90%; herbicidal efficacy against harmful plants in pre-emergence treatment [6]: good herbicidal efficacy
2 | O=CNNC(=O)c1nc(C2CC2)ncc1-c1ccccc1Cl [Example I-516, 5-(2-chlorophenyl)-2-cyclopropyl-N′-formylpyrimidine-4-carbohydrazide] | 100 | 100 | 100 | 100 | 100 | 100 | 100 | 90 | 100 | 90 |  | 100 | 100 | 100 | 100 | 90 | herbicidal efficacy against harmful plants in the case of post-emergence treatment [12]: good herbicidal efficacy; Post-emergence action at 1280 g/ha against ABUTH [13]: 100%; Post-emergence action at 320 g/ha against ECHCG ([11]; 320 g/ha): 90%
3 | O=C(NNC(=O)c1nc(C2CC2)ncc1-c1ccccc1Cl)c1ccccn1 [Example I-527, 5-(2-chlorophenyl)-2-cyclopropyl-N′-(pyridin-2-ylcarbonyl)pyrimidine-4-carbohydrazide] | 100 | 100 | 90 | 100 |  | 100 | 100 | 100 | 100 | 100 | 90 | 100 | 100 | 100 | 90 | 90 | Pre-emergence action against ABUTH [15]: 90%; Post-emergence action at 320 g/ha against LOLRI ([8]; 320 g/ha): 100%; Post-emergence action at 1280 g/ha against AMARE [16]: 100%
